Reference: patent US8846928B2 (Portola Pharmaceuticals, Inc., priority 2010, dated 2014)

Biological target: T1, full length active recombinant SYK enzyme (Homo sapiens, UniProt P43405)
T1 construct: full length active recombinant SYK enzyme (Millipore, Calif.); purchased Millipore
Assay: Inhibition of Syk tyrosine phosphorylation activity (LANCE TR-FRET kinase assay)
Type: biochemical

First: C[C@H](N)CNc1nc(Nc2cccc(-c3ncccn3)c2)c(C(N)=O)cc1F [Example 258, (S)-2-(3-(pyrimidin-2-yl)phenylamino)-6-(2-aminopropylamino)-5-fluoronicotinamide]
Second: C[C@H](N)CNc1nc(Nc2cccc(-n3cccn3)c2)c(C(N)=O)cc1F [Example 259, (S)-2-(3-(1H-pyrazol-1-yl)phenylamino)-6-(2-aminopropylamino)-5-fluoronicotinamide]
The IC50 of the first is higher: 10 to 100 nM for the first, 1 to 10 nM for the second.

Compared with `Cc1cncc(Nc2nc(NC[C@H](C)N)c(F)cc2C(N)=O)c1` [Example 260, (S)-2-(5-methylpyridin-3-ylamino)-6-(2-aminopropylamino)-5-fluoronicotinamide], `C[C@H](N)CNc1nc(Nc2cncc(F)c2)c(C(N)=O)cc1F` [Example 261, (S)-2-(5-fluoropyridin-3-ylamino)-6-(2-aminopropylamino)-5-fluoronicotinamide] is higher in IC50: 10 to 100 nM for the first, 100 to 1000 nM for the second.

`CC[C@@H](Nc1nc(Nc2cccc(OC(F)(F)F)c2)c(C(N)=O)cc1F)C(N)=O` [Example 263, (R)-6-(1-amino-1-oxobutan-2-ylamino)-5-fluoro-2-(3-(trifluoromethoxy)phenylamino)nicotinamide] and `CC[C@@H](Nc1nc(Nc2cccc(OC(F)F)c2)c(C(N)=O)cc1F)C(N)=O` [Example 264, (R)-6-(1-amino-1-oxobutan-2-ylamino)-5-fluoro-2-(3-(difluoromethoxy)phenylamino)nicotinamide] fall in the same range of IC50: 100 to 1000 nM for the first, 100 to 1000 nM for the second.

`CC(C)C[C@@H](Nc1nc(Nc2cccc(Cl)c2)c(C(N)=O)cc1F)C(N)=O` [Example 265, (R)-6-(1-amino-4-methyl-1-oxopentan-2-ylamino)-5-fluoro-2-(3-chlorophenylamino)nicotinamide] and `CC(C)C[C@@H](Nc1nc(Nc2ccc(F)c(Cl)c2)c(C(N)=O)cc1F)C(N)=O` [Example 266, (R)-6-(1-amino-4-methyl-1-oxopentan-2-ylamino)-5-fluoro-2-(3-chloro-4-fluorophenylamino)nicotinamide] fall in the same range of IC50: 10 to 100 nM for the first, 10 to 100 nM for the second.

Compared with `NC(=O)c1cc(F)c(N[C@@H]2CCOC[C@@H]2N)nc1Nc1cnc2ccccc2c1` [Example 275, 6-((3R,4R)-3-aminotetrahydro-2H-pyran-4-ylamino)-5-fluoro-2-(quinolin-3-ylamino)nicotinamide], `NC(=O)c1cc(F)c(N[C@@H]2CCCC(F)(F)[C@@H]2N)nc1Nc1cnc2ccccc2c1` [Example 289, 6-((1R,2R)-2-amino-3,3-difluorocyclohexylamino)-5-fluoro-2-(quinolin-3-ylamino)nicotinamide] is higher in IC50: 10 to 100 nM for the first, 100 to 1000 nM for the second. The first is the more potent here.

First: NC(=O)c1ccc(N[C@@H]2CCOC[C@@H]2N)nc1Nc1ccc2ncccc2c1 [Example 276, 6-((3R,4R)-3-aminotetrahydro-2H-pyran-4-ylamino)-2-(quinolin-6-ylamino)nicotinamide]
Second: NC(=O)c1cc(F)c(N[C@@H]2CCCC(F)(F)[C@@H]2N)nc1Nc1ccc2ncccc2c1 [Example 291, 6-((1R,2R)-2-amino-3,3-difluorocyclohexylamino)-5-fluoro-2-(quinolin-6-ylamino)nicotinamide]
The IC50 of the first is lower: 1 to 10 nM for the first, 10 to 100 nM for the second. The first is the more potent here.

First: NC(=O)c1cc(F)c(N[C@@H]2CCOC[C@@H]2N)nc1Nc1cccc(-n2nccn2)c1 [Example 279, 2-(3-(2H-1,2,3-triazol-2-yl)phenylamino)-6-((3R,4R)-3-aminotetrahydro-2H-pyran-4-ylamino)-5-fluoronicotinamide]
Second: NC(=O)c1cc(F)c(N[C@@H]2CCCC(F)(F)[C@@H]2N)nc1Nc1cccc(-n2nccn2)c1 [Example 293]
The IC50 of the first is lower: 1 to 10 nM for the first, 100 to 1000 nM for the second. The first is the more potent here.

`CC(C)[C@@H](Nc1nc(Nc2cnc3ccccc3c2)c(C(N)=O)cc1F)C(N)=O` [Example 300, (R)-6-(1-amino-3-methyl-1-oxobutan-2-ylamino)-5-fluoro-2-(quinolin-3-ylamino)nicotinamide] and `NC(=O)c1cc(F)c(N[C@H](CC(F)(F)F)C(N)=O)nc1Nc1cnc2ccccc2c1` [Example 301, (R)-6-(1-amino-4,4,4-trifluoro-1-oxobutan-2-ylamino)-5-fluoro-2-(quinolin-3-ylamino)nicotinamide] fall in the same range of IC50: 10 to 100 nM for the first, 10 to 100 nM for the second.

First: C[C@@H](Nc1nc(Nc2ccc3ncccc3c2)c(C(N)=O)cc1F)C(N)=O [Example 302, (R)-6-(1-amino-1-oxopropan-2-ylamino)-5-fluoro-2-(quinolin-6-ylamino)nicotinamide]
Second: NC(=O)c1cc(F)c(N[C@@H]2CCCC(F)(F)[C@@H]2N)nc1Nc1cccc2ncccc12 [Example 327, 6-((1R,2R)-2-amino-3,3-difluorocyclohexylamino)-5-fluoro-2-(quinolin-5-ylamino)nicotinamide]
The IC50 of the first is lower: 10 to 100 nM for the first, 100 to 1000 nM for the second. The first is the more potent here.

First: CC[C@@H](Nc1nc(Nc2ccc(C3CC[N+](C)([O-])CC3)cc2)c(C(N)=O)cc1F)C(N)=O (stereo partly drawn) [Example 308, (R)-4-(4-(6-(1-amino-1-oxobutan-2-ylamino)-3-carbamoyl-5-fluoropyridin-2-ylamino)phenyl)-1-methylpiperidine 1-oxide]
Second: Cc1ccc(Nc2nc(N[C@@H]3CCCC[C@@H]3N)c(F)cc2C(N)=O)cc1 [Example 315, 6-((1R,2S)-2-aminocyclohexylamino)-5-fluoro-2-(p-tolylamino)nicotinamide]
The IC50 of the first is higher: 100 to 1000 nM for the first, 1 to 10 nM for the second. The second is the more potent here.

`CN1CCC(c2ccc(Nc3nc(N[C@@H]4CCCC[C@@H]4N)c(F)cc3C(N)=O)cc2)CC1` [Example 309, 6-((1R,2S)-2-aminocyclohexylamino)-5-fluoro-2-(4-(1-methylpiperidin-4-yl)phenylamino)nicotinamide] and `NC(=O)c1cc(F)c(N[C@@H]2CCCC[C@@H]2N)nc1Nc1ccc(Cl)cc1` [Example 318, 6-((1R,2S)-2-aminocyclohexylamino)-2-(4-chlorophenylamino)-5-fluoronicotinamide] fall in the same range of IC50: 10 to 100 nM for the first, 10 to 100 nM for the second.

`NC(=O)c1cc(F)c(N[C@@H]2CCCC[C@@H]2N)nc1Nc1ccc2scnc2c1` [Example 310] and `Cc1cccc(Nc2nc(N[C@@H]3CCCC[C@@H]3N)c(F)cc2C(N)=O)c1` [Example 314, 6-((1R,2S)-2-aminocyclohexylamino)-5-fluoro-2-(m-tolylamino)nicotinamide] fall in the same range of IC50: 1 to 10 nM for the first, 1 to 10 nM for the second.

First: NC(=O)c1cc(F)c(N[C@@H]2CCCC[C@@H]2N)nc1Nc1ccccc1 [Example 312, 6-((1R,2S)-2-aminocyclohexylamino)-5-fluoro-2-(phenylamino)nicotinamide]
Second: Cc1ccccc1Nc1nc(N[C@@H]2CCCC[C@@H]2N)c(F)cc1C(N)=O [Example 313, 6-((1R,2S)-2-aminocyclohexylamino)-5-fluoro-2-(o-tolylamino)nicotinamide]
The IC50 of the first is lower: 1 to 10 nM for the first, 10 to 100 nM for the second. The first is the more potent here.

`NC(=O)c1cc(F)c(N[C@@H]2CCCC[C@@H]2N)nc1Nc1cccc(F)c1` [Example 316, 6-((1R,2S)-2-aminocyclohexylamino)-5-fluoro-2-(3-fluorophenylamino)nicotinamide] and `NC(=O)c1cc(F)c(N[C@@H]2CCCC[C@@H]2N)nc1Nc1cccc(Cl)c1` [Example 317, 6-((1R,2S)-2-aminocyclohexylamino)-2-(3-chlorophenylamino)-5-fluoronicotinamide] fall in the same range of IC50: 1 to 10 nM for the first, 1 to 10 nM for the second.

First: Cc1cccc(Nc2nc(N[C@@H]3CCCC[C@@H]3N)c(F)cc2C(N)=O)c1C [Example 319, 6-((1R,2S)-2-aminocyclohexylamino)-2-(2,3-dimethylphenylamino)-5-fluoronicotinamide]
Second: Cc1cc(Nc2nc(N[C@@H]3CCCC[C@@H]3N)c(F)cc2C(N)=O)ccc1F [Example 322, 6-((1R,2S)-2-aminocyclohexylamino)-5-fluoro-2-(4-fluoro-3-methylphenylamino)nicotinamide]
The IC50 of the first is higher: 10 to 100 nM for the first, 1 to 10 nM for the second. The second is the more potent here.

First: Cc1cc(C)cc(Nc2nc(N[C@@H]3CCCC[C@@H]3N)c(F)cc2C(N)=O)c1 [Example 320, 6-((1R,2S)-2-aminocyclohexylamino)-2-(3,5-dimethylphenylamino)-5-fluoronicotinamide]
Second: Cc1cc(F)cc(Nc2nc(N[C@@H]3CCCC[C@@H]3N)c(F)cc2C(N)=O)c1 [Example 321, 6-((1R,2S)-2-aminocyclohexylamino)-5-fluoro-2-(3-fluoro-5-methylphenylamino)nicotinamide]
The IC50 of the first is higher: 1 to 10 nM for the first, less than 1 nM for the second.

`Cc1ccc(Nc2nc(N[C@@H]3CCCC[C@@H]3N)c(F)cc2C(N)=O)cc1F` [Example 323] and `NC(=O)c1cc(F)c(N[C@@H]2CCCC[C@@H]2N)nc1Nc1cc(F)cc(F)c1` [Example 324, 6-((1R,2S)-2-aminocyclohexylamino)-2-(3,5-difluorophenylamino)-5-fluoronicotinamide] fall in the same range of IC50: 1 to 10 nM for the first, 1 to 10 nM for the second.

First: NC(=O)c1cc(F)c(N[C@@H]2CCCC[C@@H]2N)nc1Nc1cc(F)cc(Cl)c1 [Example 325, 6-((1R,2S)-2-aminocyclohexylamino)-2-(3-chloro-5-fluorophenylamino)-5-fluoronicotinamide]
Second: COc1cc(F)cc(Nc2nc(N[C@@H]3CCCC[C@@H]3N)c(F)cc2C(N)=O)c1 [Example 326, 6-((1R,2S)-2-aminocyclohexylamino)-5-fluoro-2-(3-fluoro-5-methoxyphenylamino)nicotinamide]
The IC50 of the first is higher: 1 to 10 nM for the first, less than 1 nM for the second. The second is the more potent here.

First: NC(=O)c1cc(F)c(N[C@@H]2CCCC(F)(F)[C@@H]2N)nc1Nc1ccc2ncsc2c1 [Example 328, 6-((1R,2R)-2-amino-3,3-difluorocyclohexylamino)-2-(benzo[d]thiazol-6-ylamino)-5-fluoronicotinamide]
Second: NC(=O)c1cc(F)c(N[C@@H]2CCCC(F)(F)[C@@H]2N)nc1Nc1cccc2ncsc12 [Example 329, 6-((1R,2R)-2-amino-3,3-difluorocyclohexylamino)-2-(benzo[d]thiazol-7-ylamino)-5-fluoronicotinamide]
The IC50 of the first is lower: 10 to 100 nM for the first, 100 to 1000 nM for the second.

`Cn1ccc2c(Nc3nc(N[C@@H]4CCCC(F)(F)[C@@H]4N)c(F)cc3C(N)=O)cccc21` [Example 330, 6-((1R,2R)-2-amino-3,3-difluorocyclohexylamino)-5-fluoro-2-(1-methyl-1H-indol-4-ylamino)nicotinamide] showed an IC50 of 10 to 100 nM.
